In patent US20200016159A1, “N3-CYCLICALLY SUBSTITUTED THIENOURACILS AND USE THEREOF” (Bayer Aktiengesellschaft, priority 2016, published 2020):

Biological target: T1, human adenosine A2b receptor (Homo sapiens, UniProt P29275)
T1 sequence (P29275 1-332): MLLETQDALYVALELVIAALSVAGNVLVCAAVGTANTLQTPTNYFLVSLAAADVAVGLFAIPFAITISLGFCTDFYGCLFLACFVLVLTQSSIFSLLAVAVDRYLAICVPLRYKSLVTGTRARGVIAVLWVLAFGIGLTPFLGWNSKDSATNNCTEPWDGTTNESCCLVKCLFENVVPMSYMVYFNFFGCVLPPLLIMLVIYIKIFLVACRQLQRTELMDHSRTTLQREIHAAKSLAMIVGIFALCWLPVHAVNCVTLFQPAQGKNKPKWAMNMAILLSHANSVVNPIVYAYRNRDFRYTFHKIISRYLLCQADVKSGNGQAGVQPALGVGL
Experiment: Cellular in vitro reporter gene test for A2b receptor activity (antagonism of NECA)
Format: cell-based
Design: expressed in transfected cells; host or cells: CHO-K1 (Chinese hamster ovary) with CRE-luciferase reporter
Conditions: recombinant CHO-K1 cells, CRE-luciferase reporter, co-incubation with EC50 concentration of NECA, 3 hours
Method in brief: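 Antagonism measured as block of NECA-induced, cAMP/CRE-dependent luciferase expression in recombinant A2b CHO-K1 cells. NECA used at the EC50 set in a pre-experiment on each test day; luminescence detected after 3 h. Reported as IC50, partly averaged and rounded to two significant figures.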

| IC50 | SMILES |
| --- | --- |
| 25 nM | Cc1c(Cn2nc[nH]c2=O)sc2c1c(=O)n(C1CC1)c(=O)n2CC1CCC1 [Example 18, 1-(Cyclobutylmethyl)-3-cyclopropyl-5-methyl-6-[(5-oxo-4,5-dihydro-1H-1,2,4-triazol-1-yl)methyl]thieno[2,3-d]pyrimidine-2,4(1H,3H)-dione] |
| 130 nM | Cc1c(Cn2nc[nH]c2=O)sc2c1c(=O)n(C1CC1)c(=O)n2CC#N [Example 23, {3-Cyclopropyl-5-methyl-2,4-dioxo-6-[(5-oxo-4,5-dihydro-1H-1,2,4-triazol-1-yl)methyl]-3,4-dihydrothieno[2,3-d]pyrimidin-1 (2H)-yl}acetonitrile] |
| 29 nM | COCCn1c(=O)n(C2CC2)c(=O)c2c(C)c(CN3CCNC3=O)sc21 [Example 24, 3-Cyclopropyl-1-(2-methoxyethyl)-5-methyl-6-[(2-oxoimidazolidin-1-yl)methyl]thieno[2,3-d]pyrimidine-2,4(1H,3H)-dione] |
| 12 nM | COCCn1c(=O)n(C2CC2)c(=O)c2c(C)c(CN3CCNC3=NC#N)sc21 [Example 25, [1-{[3-Cyclopropyl-1-(2-methoxyethyl)-5-methyl-2,4-dioxo-1,2,3,4-tetrahydrothieno[2,3-d]pyrimidin-6-yl]methyl}imidazolidin-2-ylidene]cyanamide] |
| 40 nM | COCCn1c(=O)n(C2CC2)c(=O)c2c(C)c(CN3CCNC(=O)C3=O)sc21 [Example 27, 3-Cyclopropyl-6-[(2,3-dioxopiperazin-1-yl)methyl]-1-(2-methoxyethyl)-5-methylthieno[2,3-d]pyrimidine-2,4(1H,3H)-dione] |
| 19 nM | COCCn1c(=O)n(C2CC2)c(=O)c2c(C)c(Cn3cc[nH]c3=O)sc21 [Example 28, 3-Cyclopropyl-1-(2-methoxyethyl)-5-methyl-6-[(2-oxo-2,3-dihydro-1H-imidazol-1-yl)methyl]thieno[2,3-d]pyrimidine-2,4(1H,3H)-dione] |
| 57 nM | COCCn1c(=O)n(C2CC2)c(=O)c2c(C)c(Cn3nc[nH]c3=O)sc21 [Example 29, 3-Cyclopropyl-1-(2-methoxyethyl)-5-methyl-6-[(5-oxo-4,5-dihydro-1H-1,2,4-triazol-1-yl)methyl]thieno[2,3-d]pyrimidine-2,4(1H,3H)-dione] |
| 9.3 nM | [2H]C([2H])(c1sc2c(c1C)c(=O)n(C1CC1)c(=O)n2CCOC)N1CCNC1=O [Example 30, 3-Cyclopropyl-1-(2-methoxyethyl)-5-methyl-6-[(2-oxoimidazolidin-1-yl)dideuteromethyl]thieno[2,3-d]pyrimidine-2,4(1H,3H)-dione] |
| 67 nM | CCOCCn1c(=O)n(C2CC2)c(=O)c2c(C)c(CN3CCNC3=O)sc21 [Example 31, 3-Cyclopropyl-1-(2-ethoxyethyl)-5-methyl-6-[(2-oxoimidazolidin-1-yl)methyl]thieno[2,3-d]pyrimidine-2,4(1H,3H)-dione] |
| 430 nM | CCOCCn1c(=O)n(C2CC2)c(=O)c2c(C)c(Cn3nc[nH]c3=O)sc21 [Example 32, 3-Cyclopropyl-1-(2-ethoxyethyl)-5-methyl-6-[(5-oxo-4,5-dihydro-1H-1,2,4-triazol-1-yl)methyl]thieno[2,3-d]pyrimidine-2,4(1H,3H)-dione] |
| 100 nM | Cc1c(CN2CCNC2=O)sc2c1c(=O)n(C1CC1)c(=O)n2CCOC(C)C [Example 33, 3-Cyclopropyl-1-(2-isopropoxyethyl)-5-methyl-6-[(2-oxoimidazolidin-1-yl)methyl]thieno[2,3-d]pyrimidine-2,4(1H,3H)-dione] |
| 500 nM | Cc1c(Cn2nc[nH]c2=O)sc2c1c(=O)n(C1CC1)c(=O)n2CCOC(C)C [Example 34, 3-Cyclopropyl-1-(2-isopropoxyethyl)-5-methyl-6-[(5-oxo-4,5-dihydro-H-1,2,4-triazol-1-yl)methyl]thieno[2,3-d]pyrimidine-2,4(1H,3H)-dione] |
| 1.8 nM | Cc1c(CN2CCNC2=O)sc2c1c(=O)n(C1CC1)c(=O)n2CCOC(F)(F)F [Example 35, 3-Cyclopropyl-5-methyl-6-[(2-oxoimidazolidin-1-yl)methyl]-1-[2-(trifluoromethoxy)ethyl]thieno[2,3-d]pyrimidine-2,4(1H,3H)-dione] |
| 33 nM | Cc1c(CN2CCNC2=O)sc2c1c(=O)n(C1CC1)c(=O)n2C[C@H]1CCCO1 [Example 38, 3-Cyclopropyl-5-methyl-6-[(2-oxoimidazolidin-1-yl)methyl]-1-[(2R)-tetrahydrofuran-2-ylmethyl]thieno[2,3-d]pyrimidine-2,4(1H,3H)-dione] |
| 240 nM | Cc1c(CN2CCNC2=O)sc2c1c(=O)n(C1CC1)c(=O)n2C[C@@H]1CCCO1 [Example 39, 3-Cyclopropyl-5-methyl-6-[(2-oxoimidazolidin-1-yl)methyl]-1-[(2S)-tetrahydrofuran-2-ylmethyl]thieno[2,3-d]pyrimidine-2,4(1H,3H)-dione] |
| 140 nM | Cc1c(Cn2nc[nH]c2=O)sc2c1c(=O)n(C1CC1)c(=O)n2C[C@H]1CCCO1 [Example 50, 3-Cyclopropyl-5-methyl-6-[(5-oxo-4,5-dihydro-1H-1,2,4-triazol-1-yl)methyl]-1-[(2R)-tetrahydrofuran-2-ylmethyl]thieno[2,3-d]pyrimidine-2,4(1H,3H)-dione] |
| 320 nM | Cc1c(Cn2nc[nH]c2=O)sc2c1c(=O)n(C1CC1)c(=O)n2C[C@@H]1CCCO1 [Example 51, 3-Cyclopropyl-5-methyl-6-[(5-oxo-4,5-dihydro-1H-1,2,4-triazol-1-yl)methyl]-1-[(2S)-tetrahydrofuran-2-ylmethyl]thieno[2,3-d]pyrimidine-2,4(1H, 3H)-dione] |
| 19 nM | Cc1c(CN2CCNC2=O)sc2c1c(=O)n(C1(C)CC1)c(=O)n2C [Example 52, 1,5-Dimethyl-3-(1-methylcyclopropyl)-6-[(2-oxoimidazolidin-1-yl)methyl]thieno[2,3-d]pyrimidine-2,4(1H,3H)-dione] |
| 120 nM | Cc1c(Cn2nc[nH]c2=O)sc2c1c(=O)n(C1(C)CC1)c(=O)n2C [Example 53, 1,5-Dimethyl-3-(1-methylcyclopropyl)-6-[(5-oxo-4,5-dihydro-1H-1,2,4-triazol-1-yl)methyl]thieno[2,3-d]pyrimidine-2,4(1H,3H)-dione] |
| 7.5 nM | CCCCn1c(=O)n(C2(C)CC2)c(=O)c2c(C)c(CN3CCNC3=O)sc21 [Example 54, 1-Butyl-5-methyl-3-(1-methylcyclopropyl)-6-[(2-oxoimidazolidin-1-yl)methyl]thieno[2,3-d]pyrimidine-2,4(1H,3H)-dione] |
| 49 nM | CCCCn1c(=O)n(C2(C)CC2)c(=O)c2c(C)c(Cn3nc[nH]c3=O)sc21 [Example 55, 1-Butyl-5-methyl-3-(1-methylcyclopropyl)-6-[(5-oxo-4,5-dihydro-1H-1,2,4-triaiazol-1-yl)methyl]thieno[2,3-d]pyrimidine-2,4(1H,3H)-dione] |
| 3.6 nM | Cc1c(CN2CCNC2=O)sc2c1c(=O)n(C1(C)CC1)c(=O)n2CCC(F)(F)F [Example 56, 5-Methyl-3-(1-methylcyclopropyl)-6-[(2-oxoimidazolidin-1-yl)methyl]-1-(3,3,3-trifluoropropyl)thieno[2,3-d]pyrimidine-2,4(1H,3H)-dione] |
| 4.4 nM | Cc1c(CN2CCNC2=NC#N)sc2c1c(=O)n(C1(C)CC1)c(=O)n2CCC(F)(F)F [Example 57, [1-{[5-Methyl-3-(1-methylcyclopropyl)-2,4-dioxo-1-(3,3,3-trifluoropropyl)-1,2,3,4-tetrahydrothieno[2,3-d]pyrimidin-6-yl]methyl}imidazolidin-2-ylidene]cyanamide] |
| 10 nM | COC(=O)N=C1NCCN1Cc1sc2c(c1C)c(=O)n(C1(C)CC1)c(=O)n2CCC(F)(F)F [Example 58, Methyl [1-{[5-methyl-3-(1-methylcyclopropyl)-2,4-dioxo-1-(3,3,3-trifluoropropyl)-1,2,3,4-tetrahydrothieno[2,3-d]pyrimidin-6-yl]methyl}imidazolidin-2-ylidene]carbamate] |
| 9.3 nM | Cc1c(CN2CCNC(=O)C2=O)sc2c1c(=O)n(C1(C)CC1)c(=O)n2CCC(F)(F)F [Example 59, 6-[(2,3-Dioxopiperazin-1-yl)methyl]-5-methyl-3-(1-methylcyclopropyl)-1-(3,3,3-trifluoropropyl)thieno[2,3-d]pyrimidine-2,4(1H,3H)-dione] |
| 15 nM | Cc1c(Cn2nc[nH]c2=O)sc2c1c(=O)n(C1(C)CC1)c(=O)n2CCC(F)(F)F [Example 60, 5-Methyl-3-(1-methylcyclopropyl)-6-[(5-oxo-4,5-dihydro-1H-1,2,4-triazol-1-yl)methyl]-1-(3,3,3-trifluoropropyl)thieno[2,3-d]pyrimidine-2,4(1H,3H)-dione] |
| 5.4 nM | Cc1c(CN2CCNC2=O)sc2c1c(=O)n(C1(C)CC1)c(=O)n2CC1CCC1 [Example 61, 1-(Cyclobutylmethyl)-5-methyl-3-(1-methylcyclopropyl)-6-[(2-oxoimidazolidin-1-yl)methyl]thieno[2,3-d]pyrimidine-2,4(1H,3H)-dione] |
| 65 nM | Cc1c(Cn2nc[nH]c2=O)sc2c1c(=O)n(C1(C)CC1)c(=O)n2CC1CCC1 [Example 62, 1-(Cyclobutylmethyl)-5-methyl-3-(1-methylcyclopropyl)-6-[(5-oxo-4,5-dihydro-1H-1,2,4-triazol-1-yl)methyl]thieno[2,3-d]pyrimidine-2,4(1H,3H)-dione] |
